Laboratory results from patent US8653080B2, “Methods for screening and compounds that protect against amyloid diseases” (Salk Institute for Biological Studies, priority 2009, dated 2014).

Assays:
CL660 animals [1] = assay: vGFP signal scoring in transgenic C. elegans (CL660) expressing Aβ, liquid culture; assay type: in vivo; details: compounds at 100 μM in S-media; 36 hours into adulthood; FIG. 18; control DMSO 0.1%
Method: Identification of compounds that inhibit aggregation-mediated proteotoxicity was carried out using transgenic C. elegans strain, which expresses human Aβ1-42 within body wall muscles under the direction of the myo-3 promoter cause by induction at 25 C and inhibition of smg-1 activity. This induction in the absence of an effective inhibitor causes association of a heat shock protein-GFP fusion construct with the Aβ1-42 (a schematic of this model is shown in FIG. 2).
Twenty-four hours after placing the L1-stage worms into the fridge, the plates were removed for fileting. Fifteen to twenty-five worms each were placed into wells of a microtiter plate containing compounds to be tested in an aqueous environment or a corresponding control. Only worms that were moving normally were filleted. The worms were incubated for approximately 36 hours or until L3 stage was reached. Aβ toxicity was then generated by growing the worms at 25 C for 18 hours which effects smg-1 activity. […] Typically the worms settled to the bottom of the well and were counted manually.
(§1) Animals were grown at 15° C. until adulthood. Gravid adults were suspended and bleached; eggs were resuspended in M9 salt solution and allowed to hatch for 24 hours at 15° C. Compounds were added to S-media at 100 μM concentration and then aliquoted to 48-well Costar plates at 400 μL per well. As a control, DMSO was added to S-media at 0.1% concentration. L1 hatched larvae were added to each well at 50-100 animals per 25 μL aliquot. Worms were thus grown in liquid media until reaching the third larval stage (L3) at 15° C. At L3 worms were shifted to 25° C. to begin biogenesis of Aβ protein. Observation began 24 hours later when the animals have reached adulthood (timepoint=0 hrs). Animals were scored as either with or without vGFP signal, regardless of intensity level.

CL660 animals [2] = assay: vGFP scoring in CL660 animals fed bacteria expressing RNAi (daf-16, hsf-1) plus compound; assay type: in vivo, C. elegans; details: for effect of DAF-16 knockdown on the beneficial effects (vGFP) of the compound: daf-16 RNAi, FIG. 19; for effect of HSF-1 knockdown on vGFP expression with the compound: hsf-1 RNAi, FIG. 20
Method: as §1
In order to determine a pathway the compounds are acting upon, experiments were performed with genetics already known to be involved in the handling of Aβ aggregation. The insulin/IGF-1 pathway plays a role in the handling of cellular stress. DAF-2 is the sole insulin/IGF-1 receptor in C. elegans and depletion of DAF-2 results in long-lived, stress resistant worms. The Aβ protein applies a biochemical stress to cellular activity as shown by the hsp-16.2 activity in response to its presence. […] DAF-16 encodes a FOXO transcription factor and is required for the lifepan extension in worms fed daf-2RNAi. HSF-1 is also required for the lifespan extension seen in worms fed daf-2 RNAi.
CL660 animals were fed bacteria expressing RNAi suspended in S-basal solution.

SMILES	vGFP in CL660 animals compared to control (CL660 animals [1])	effect of DAF-16 knockdown on the beneficial effects (vGFP) of the compound (CL660 animals [2])	effect of HSF-1 knockdown on vGFP expression with the compound (CL660 animals [2])
O=C(NCc1ccccc1)C1C(=O)N[C@@H](COCc2ccccc2)C(=O)N1C1CCCC1 (some centres unmarked) [H7]	reduced vGFP		
O=C(NCc1ccccc1)C1C(=O)N[C@@H](COCc2ccccc2)C(=O)N1Cc1cccnc1 (some centres unmarked) [E7]	reduced vGFP		
CCCCN1C(=O)[C@H](COCc2ccccc2)NC(=O)C1C(=O)NCc1ccccc1 (some centres unmarked) [D7]	reduced vGFP	partially suppressed the beneficial effects	no effect on vGFP expression
CCC(CC)N1C(=O)[C@H](COCc2ccccc2)NC(=O)C1C(=O)NCc1ccccc1 (some centres unmarked) [F7]	reduced vGFP	partially suppressed the beneficial effects	no effect on vGFP expression
